In US4132787A, “Pharmaceutical compositions containing a gamma-resorcylic acid derivative in the treatment of thrombosis” (Science Union et Cie, priority 1975, dated 1979):

Tests used:
[1] = toxicity (LD50) in mice, I.V. and P.O.; conditions: mouse, in vivo
[2] = test system: fibrinolytic activity; assay: fibrinolytic activity in male rats after P.O. administration; assay type: in vivo; conditions: 25 mg/kg P.O.
Method: The fibrinolytic activity was determined on a batch of 7 male rats after administration of 25 mg/kg P.O. of compound I. It was observed that the fibrinolytic activity increases respectively of 14 and 11%, 60 and 90 minutes after the administration of the product. The return to basis values takes place 3 hours after this administration.

[3] = test system: monomers of fibrin; assay: level of monomers of fibrin in the rabbit after I.V. administration; assay type: in vivo; conditions: 5 mg/kg I.V.
Description: This decrease reaches 23%, ten minutes after the injection.

[4] = test system: platelet stickiness; assay: platelet stickiness, Salzman method, in the rabbit; assay type: in vivo; conditions: 50 mg/kg P.O., 4 hours after administration
Method: By using the Salzman method, J. Lab. Clin. Med. 62, 724 (1963), it was observed that the compound I decreases by 20% the platelet stickiness, 4 hours after the administration of 50 mg/kg P.O. of the product in the rabbit.

[5] = test system: erythrocytes from human; assay: aggregation of erythrocytes induced by Dextran, in vitro, human erythrocytes; assay type: cell-based; conditions: at 0.001 and 0.002 molar
Description: (§1) The inhibiting action of compound I on the aggregation of erythrocytes induced by Dextran was evidenced in vitro on erythrocytes from human, dog and rabbit, according to the method of Von Kaulla K.N., ArzneimittelForschung, Drug Research 25 (2) 152-155 (1975).

[6] = test system: erythrocytes from dog; assay: aggregation of erythrocytes induced by Dextran, in vitro, dog erythrocytes; assay type: cell-based; conditions: at 0.001 and 0.002 molar
Description: as §1

[7] = test system: erythrocytes from rabbit; assay: aggregation of erythrocytes induced by Dextran, in vitro, rabbit erythrocytes; assay type: cell-based; conditions: at 0.001 and 0.002 molar
Description: as §1

[8] = test system: plasmatic clot; assay: retraction of plasmatic clot in vitro; assay type: biochemical; conditions: concentrations ≥ 1,79 mg/ml of plasma, 60 minutes
Method: The inhibiting action of compound I on the retraction of plasmatic clot was evidenced in vitro. At the concentrations ≥ 1,79 mg/ml of plasma, the compound I inhibits totally (100%) the normal retraction of the clot measured for a lapse of 60 minutes.

[9] = test system: α2 -macroglobulins; assay: fibrinolytic inhibitors: α2-macroglobulins titrated by radial immuno-diffusion in standard plasma; assay type: biochemical; conditions: one hour at 37° C.
Method: (§2) The main inhibitors of anti-plasminic type, viz. α2 -macroglobulins, α1 -anti-trypsins and anti-thrombin III were titrated according to the radial immuno-diffusion techniques.
(§3) Three concentrations of compound I were incorporated to a pool of standard plasma and incubated for one hour at 37° C. At non-lytic doses by deficiency (suspended standard clots) the compound I gives a decrease of about 10% of α2 -macroglobulins level, a decrease of about 20% of α1 -anti-trypsins level and a decrease of about 10% of anti-thrombin III level.

[10] = test system: α1 -anti-trypsins; assay: fibrinolytic inhibitors: α1-anti-trypsins titrated by radial immuno-diffusion in standard plasma; assay type: biochemical; conditions: one hour at 37° C.
Method: as §2, §3

[11] = test system: anti-thrombin III; assay: fibrinolytic inhibitors: anti-thrombin III titrated by radial immuno-diffusion in standard plasma; assay type: biochemical; conditions: one hour at 37° C.
Method: as §2, §3

[12] = test system: fibrinogen; assay: fibrinogen level in standard plasma incubated with compound I; assay type: biochemical; conditions: non-lytic doses by excess (high concentrations)

In the case of CCCCCc1cc(O)c(C(=O)O)c(O)c1 [compound I, 4-n-pentyl-6-hydroxy salicylic acid], the LD50 ([1]; iv, I.V.) is reported as 50 to 100 mg/kg, the LD50 ([1]; po, P.O.) is reported as 1000 to 1500 mg/kg and the “return of fibrinolytic activity to basis values, time after administration” value [2] is reported as 3 h. For the same compound, the “increase of fibrinolytic activity” value ([2]; 60 minutes after administration) was 14%, the “increase of fibrinolytic activity” value ([2]; 90 minutes after administration) was 11% and the “decrease of the level of monomers of fibrin” value ([3]; ten minutes after injection) was 23%. For the same compound, the “decrease of the level of monomers of fibrin” value ([3]; two minutes after injection) was 10%, the “decrease of platelet stickiness” value [4] was 20% and the “inhibition of the aggregation of erythrocytes induced by Dextran” value (“inhibition of the aggregation … by Dextran” below) [5] was 100%. For the same compound, the “inhibition of the aggregation … by Dextran” value [6] was 100%, the “inhibition of the aggregation … by Dextran” value [7] was 100% and the “inhibition of the normal retraction of the clot” value [8] was 100%. The “decrease of α2 -macroglobulins level” value ([9]; lytic doses) was “about 20%”, the “decrease of α2 -macroglobulins level” value ([9]; non-lytic doses by deficiency) was “about 10%” and the “decrease of α1 anti-trypsins level” value ([10]; lytic doses) was 80%. The “decrease of α1 -anti-trypsins level” value ([10]; non-lytic doses by deficiency) was “about 20%”, the “decrease of anti-thrombin III level” value ([11]; lytic doses) was 50% and the “decrease of anti-thrombin III level” value ([11]; non-lytic doses by deficiency) was “about 10%”. The fibrinogen level [12] was “important decrease”.
